Results on 27 compounds are retold here after patent US20240025883A1, “PYRIMIDIN-2-YL SULFONAMIDE DERIVATIVES” (Hoffmann-La Roche Inc., priority 2021, published 2024).

Chain of human GPR17 short isoform (Q13304 29-367): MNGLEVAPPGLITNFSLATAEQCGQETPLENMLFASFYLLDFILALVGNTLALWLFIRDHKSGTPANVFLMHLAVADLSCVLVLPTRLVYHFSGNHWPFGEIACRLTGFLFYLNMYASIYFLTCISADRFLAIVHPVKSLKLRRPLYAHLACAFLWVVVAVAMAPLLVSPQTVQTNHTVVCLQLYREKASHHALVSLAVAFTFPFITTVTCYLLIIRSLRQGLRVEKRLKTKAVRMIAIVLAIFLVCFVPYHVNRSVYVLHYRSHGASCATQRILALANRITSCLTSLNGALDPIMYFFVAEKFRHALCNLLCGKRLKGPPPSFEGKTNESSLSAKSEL

This assay has as its target human GPR17 short isoform (Homo sapiens (Human), UniProt Q13304). Kind of assay: GPR17 cAMP assay (hGPR17 cAMP, antagonist mode against EC80 of MDL29,951). The format is cell-based. To be noted: CHO-K1 cells stably expressing human GPR17 short isoform; EC80 of agonist MDL29,951; forskolin 15 μM. The essentials: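 cAMP was read by competitive TR-FRET after a 30 min room-temperature stimulation: antagonists plus EC80 MDL29,951 and 0.5 mM IBMX, followed 5 min later by 15 μM forskolin. Cells were CHO-K1 with stable human GPR17 short isoform in HBSS/HEPES/BSA, pH 7.4; percent activity versus reference antagonist fitted sigmoidally.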
On the technique in general: Cyclic AMP is a second messenger, typically raised through Gs and lowered through Gi signalling.
Compound `COc1nc(NS(=O)(=O)c2c[nH]c3c(OC(F)F)c(Cl)ccc23)ncc1CC(F)F` [Example 188, 6-chloro-N-[5-(2,2-difluoroethyl)-4-methoxy-pyrimidin-2-yl]-7-(difluoromethoxy)-1H-indole-3-sulfonamide] registered an IC50 of 28 nM.
Take `COc1nc(NS(=O)(=O)c2c[nH]c3cc(Cl)ccc23)nc(OC)c1CCC(F)F` [Example 62, 6-chloro-N-[5-(3,3-difluoropropyl)-4,6-dimethoxy-pyrimidin-2-yl]-1H-indole-3-sulfonamide]: the half-maximal inhibitory concentration (IC50) was determined as 12 nM.
With `Cc1nc(NS(=O)(=O)c2c[nH]c3cc(Cl)ccc23)nc(C)c1Br` [Example 33, N-(5-bromo-4,6-dimethyl-pyrimidin-2-yl)-6-chloro-1H-indole-3-sulfonamide], the IC50 was determined as 569 nM.
Consider `COc1nc(NS(=O)(=O)c2c[nH]c3cc(Cl)ccc23)nc(OC)c1CC(F)CF` (stereo not drawn) [Example 264, 6-chloro-N-[5-(2,3-difluoropropyl)-4,6-dimethoxy-pyrimidin-2-yl]-1H-indole-3-sulfonamide], for which the IC50 was found to be 23 nM.
The compound `COc1nc(NS(=O)(=O)c2c[nH]c3c4c(ccc23)COC4)nc(OC)c1CC(F)F` [Example 229, N-[5-(2,2-difluoroethyl)-4,6-dimethoxy-pyrimidin-2-yl]-6,8-dihydro-1H-fur[3,4-g]indole-3-sulfonamide] gave a 50% inhibitory concentration (IC50) of 27 nM.
As for `COc1nc(NS(=O)(=O)c2c[nH]c3cc(Cl)ccc23)ncc1C#CC1COC1` [Example 180, 6-chloro-N-[4-methoxy-5-[2-(oxetan-3-yl)ethynyl]pyrimidin-2-yl]-1H-indole-3-sulfonamide], the IC50 came to 305 nM.
`COc1nc(NS(=O)(=O)c2c[nH]c3c2ccc2sncc23)ncc1CC(F)F` [Example 282, N-[5-(2,2-Difluoroethyl)-4-Methoxy-Pyrimidin-2-Yl]-1H-Pyrrolo[2,3-e][1,2]Benzothiazole-3-Sulfonamide] yielded an IC50 of 110 nM.
With `COc1nc(NS(=O)(=O)c2c[nH]c3cc(CC#N)ccc23)ncc1CC(F)F` [Example 197, 6-(cyanomethyl)-N-[5-(2,2-difluoroethyl)-4-methoxy-pyrimidin-2-yl]-1H-indole-3-sulfonamide], the IC50 was 981 nM.
`COc1nc(NS(=O)(=O)c2c[nH]c3nc(C(F)F)ccc23)nc(OC)c1OC(F)F` [Example 94, N-[5-(difluoromethoxy)-4,6-dimethoxy-pyrimidin-2-yl]-6-(difluoromethyl)-1H-pyrrolo[2,3-b]pyridine-3-sulfonamide] gave an IC50 of 76 nM.
In turn, `COc1nc(NS(=O)(=O)c2c[nH]c3cc(Cl)ccc23)ncc1OCCC(F)(F)F` [Example 40, 6-chloro-N-[4-methoxy-5-(3,3,3-trifluoropropoxy)pyrimidin-2-yl]-1H-indole-3-sulfonamide] yielded an IC50 of 628 nM.
The compound `COc1nc(NS(=O)(=O)c2c[nH]c3nc(Br)ccc23)nc(OC)c1CCC(F)F` [Example 112, 6-bromo-N-[5-(3,3-difluoropropyl)-4,6-dimethoxy-pyrimidin-2-yl]-1H-pyrrolo[2,3-b]pyridine-3-sulfonamide] yielded an IC50 of 16 nM.
Next, `COc1nc(NS(=O)(=O)c2c[nH]c3cc(Br)ccc23)ncc1CC(F)F` [Example 88, 6-bromo-N-[5-(2,2-difluoroethyl)-4-methoxy-pyrimidin-2-yl]-1H-indole-3-sulfonamide]: 33 nM; `COc1nc(NS(=O)(=O)c2c[nH]c3c(Cl)c(Cl)ccc23)ncc1CC(F)F` [Example 210, 6,7-dichloro-N-[5-(2,2-difluoroethyl)-4-methoxy-pyrimidin-2-yl]-1H-indole-3-sulfonamide]: 18 nM; `COc1nc(NS(=O)(=O)c2c[nH]c3cc(Cl)ccc23)nc(OC)c1OCC1COC1` [Example 263, 6-chloro-N-[4,6-dimethoxy-5-(oxetan-3-ylmethoxy)pyrimidin-2-yl]-1H-indole-3-sulfonamide]: 2060 nM.
`COc1nc(NS(=O)(=O)c2c[nH]c3c(F)c(C(F)F)ccc23)nc(OC)c1OCC(F)F` [Example 250, N-[5-(2,2-difluoroethoxy)-4,6-dimethoxy-pyrimidin-2-yl]-6-(difluoromethyl)-7-fluoro-1H-indole-3-sulfonamide] yielded an IC50 of 35 nM.
`O=S(=O)(Nc1ncc(OCC(F)F)c(Cl)n1)c1c[nH]c2cc(Cl)ccc12` [Example 76, 6-chloro-N-[4-chloro-5-(2,2-difluoroethoxy)pyrimidin-2-yl]-1H-indole-3-sulfonamide] registered an IC50 of 916 nM.
Consider `COc1nc(NS(=O)(=O)c2c[nH]c3cc(Cl)ccc23)ncc1CC(C)(F)F` [Example 260, 6-chloro-N-[5-(2,2-difluoropropyl)-4-methoxy-pyrimidin-2-yl]-1H-indole-3-sulfonamide], for which the IC50 was 488 nM.
Next, `COc1nc(NS(=O)(=O)c2c[nH]c3cc(Cl)ccc23)nc(OC)c1C1CC1` [Example 69, 6-chloro-N-(5-cyclopropyl-4,6-dimethoxy-pyrimidin-2-yl)-1H-indole-3-sulfonamide]: 14 nM; `COc1nc(NS(=O)(=O)c2c[nH]c3cc(Cl)ccc23)ncc1OC(F)(F)C(F)F` [Example 43, 6-chloro-N-[4-methoxy-5-(1,1,2,2-tetrafluoroethoxy)pyrimidin-2-yl]-1H-indole-3-sulfonamide]: 60 nM.
In the case of `CCc1cnc(NS(=O)(=O)c2c[nH]c3cc(Cl)ccc23)nc1OC` [Example 15, 6-chloro-N-(5-ethyl-4-methoxy-pyrimidin-2-yl)-1H-indole-3-sulfonamide], the IC50 turned out to be 132 nM.
Compound `COc1nc(NS(=O)(=O)c2c[nH]c3cc(Cl)ccc23)nc(OC)c1OCCF` [Example 53, 6-chloro-N-[5-(2-fluoroethoxy)-4,6-dimethoxy-pyrimidin-2-yl]-1H-indole-3-sulfonamide] returned an IC50 of 11 nM.
For `COc1nc(NS(=O)(=O)c2c[nH]c3cc(Cl)ccc23)nc(C2CC2)c1OCC(F)F` [Example 19, 6-chloro-N-[4-cyclopropyl-5-(2,2-difluoroethoxy)-6-methoxy-pyrimidin-2-yl]-1H-indole-3-sulfonamide] the value was 49 nM; for `COc1nc(NS(=O)(=O)c2c[nH]c3c(SC)c(Cl)ccc23)ncc1CC(F)F` [Example 234, 6-chloro-N-[5-(2,2-difluoroethyl)-4-methoxy-pyrimidin-2-yl]-7-(methylthio)-1H-indole-3-sulfonamide], 16 nM; for `COc1nc(NS(=O)(=O)c2csc3nc(Br)ccc23)ncc1CCC(F)F` [Example 270, 6-bromo-N-[5-(3,3-difluoropropyl)-4-methoxy-pyrimidin-2-yl]thieno[2,3-b]pyridine-3-sulfonamide], 72 nM.
In turn, `COc1nc(NS(=O)(=O)c2c[nH]c3cc(Cl)ccc23)nc(C2CC2)c1CC(F)F` [Example 79, 6-chloro-N-[4-cyclopropyl-5-(2,2-difluoroethyl)-6-methoxy-pyrimidin-2-yl]-1H-indole-3-sulfonamide] gave an IC50 of 128 nM.
Next, `COc1nc(NS(=O)(=O)c2c[nH]c3c(Br)c(Cl)ccc23)ncc1CCC#N` [Example 255, 7-bromo-6-chloro-N-[5-(2-cyanoethyl)-4-methoxy-pyrimidin-2-yl]-1H-indole-3-sulfonamide]: 38 nM; `COc1nc(NS(=O)(=O)c2csc3cc(Br)ccc23)ncc1OCCF` [Example 158, 6-bromo-N-[5-(2-fluoroethoxy)-4-methoxy-pyrimidin-2-yl]benzothiophene-3-sulfonamide]: 47 nM.

Usually IC50 stands for the point on the concentration scale where inhibition reaches its midpoint. A higher IC50 goes with lower potency.
